For 86 compounds, IC50 results are on record in PubChem BioAssay AID2305 (GlaxoSmithKline (GSK), 2010).

Molecules are shown by their SMILES.

The test relates to P. falciparum 3D7 growth, pLDH absorbance. Put plainly: blood-stage malaria parasite growth potency – strain 3D7, dose response (AID 2305).
Turning to `CCNc1cc(C(=O)N[C@@H](Cc2ccco2)[C@H](O)CNC2CCCCC2)cc(N2CCCCS2(=O)=O)c1`, the IC50 (in general, the concentration needed to halve the response being measured) came to 1010 nM.
To `Cc1c(CNCCCNc2cc(=O)c3ccccc3[nH]2)sc(-c2ccco2)c1Br` belongs 1020 nM.
With `CNC(=O)CNC(=O)COc1cccc2ccccc12`, the IC50 worked out at 230 nM.
`COc1ccc(NS(=O)(=O)c2ccc(C(=O)Nc3ccc(C(F)(F)F)cc3)cc2)cc1N1CCN(CC2CC2)CC1`: the IC50 was found to be 830 nM.
Next, `CCOc1cc2c(cc1OCC)C(c1cc(OC)c(O)cc1Cl)NCC2` (stereo unspecified): 750 nM; `CC(Cc1ccc(NC(=O)CCNCc2ccccc2)cc1)NCCc1cccc(Cl)c1` (stereo unspecified): 150 nM; `COc1cc(Nc2nccc(N3CCC(NC(=O)c4cccc(C#N)c4)C3)n2)cc(OC)c1OC` (stereo unspecified): 990 nM.
Next, `C=CCNC(CCCCC)c1ccc(OCCOc2ccc(C(CCCCC)NCC=C)cc2)cc1` (stereo unspecified): 570 nM; `Cc1ccc(S(=O)(=O)n2cc(-c3ccnc(N)c3)c3cc(Br)cnc32)cc1`: 900 nM; `Nc1oc2c(CN3CCCCCC3)c(O)ccc2c(=O)c1-c1nc2ccccc2s1`: 520 nM.
Consider `COc1ccc2nccc([C@@H](O)CN3CCC(NCc4cc5cc(OC(F)(F)F)ccc5[nH]4)CC3)c2c1`, for which the IC50 came to 130 nM.
To `COc1cc(-c2cc(-c3ccc(S(C)(=O)=O)cc3)cnc2N)ccc1O` belongs 100 nM; to `Cc1cccc2[nH]c(-c3cccc(-c4ccc(CNCc5ccc(S(C)(=O)=O)cc5)cc4)c3)nc12`, 180 nM; to `CC1(C)N=C(N)N=C(N)N1OCCCOc1ccc(N)cc1`, 10 nM.
To `O=C(CCCc1ccccc1)Nc1cccc(N2CCC(N3CCN(c4ccccc4O)CC3)CC2)c1` belongs 790 nM; to `Fc1cccc(COc2ccc(Nc3ncnc4sc(C#C[C@H]5CC[C@H](CNCC(F)(F)F)N5)cc34)cc2Cl)c1`, 1420 nM.
To `COc1cc2c(cc1OCCN1CCC(N3CCCCC3)CC1)N(C(=O)/C=C/c1ccccc1OC(F)(F)F)CC2` belongs 590 nM; to `Cc1cc(SC(C)(C)C)cc2c(Cl)c(C(N)=O)cnc12`, 1090 nM; to `COc1cc(F)c2nccc([C@@H](O)CN3CC[C@H](NCc4ccc5c(n4)NC(=O)CS5)[C@H](F)C3)c2c1`, 1170 nM.
As to `CC[C@H](C)CNC(=O)c1cncc(-c2cccc(CN(C)C3CCN(C)CC3)c2)c1`, the half-inhibitory concentration (IC50) worked out at 780 nM.
To `CCC(C)(C)NC(=O)C(c1cccc(OC)c1)N(C(=O)CNC(=O)c1cccs1)c1ccc2c(c1)OCCO2` (stereo unspecified) belongs 830 nM; to `CCCCCN1CCN(Cc2cccc(NC(=O)c3ccc(Cl)c(Cl)c3)c2)CC1`, 860 nM; to `COc1ccc2nccc([C@@H](O)CN3CCC(NC(=O)COc4nc(SCc5ccc(F)cc5)nc5c4CCC5)CC3)c2c1`, 590 nM.
To `COc1cc(F)c2nccc([C@@H](O)CN3CCC(NCc4nc5c(F)cccc5[nH]4)CC3)c2c1` belongs 850 nM.
Turning to `CC[C@H](C)[C@@H](C(=O)N1CCOCC1)N1CC[C@H](NS(=O)(=O)CC(C)(C)c2ccc(Cl)cc2)C1=O`, the IC50 amounted to 550 nM.
Next, `CC1CCCCN1CCCNc1ncc2c(-c3ccc(NC(=O)Nc4cc(C(F)(F)F)ccc4F)c(F)c3)nn(C)c2n1` (stereo unspecified): 260 nM; `N#Cc1ccc(N2CCN(Cc3cccc(-c4ccc(-c5nc6ccc(C(F)(F)F)cc6[nH]5)cc4)c3)CC2)nc1`: 700 nM; `O=C(Nc1ccccc1)N(Cc1ccc(-c2cccc(CNCc3ccc4c(c3)OCO4)c2)cc1)C1CCN(Cc2ccccc2)CC1`: 280 nM.
Next, `Cc1cc(N[C@@H](Cc2ccccc2)C(=O)Nc2ccccc2)nc(NCCc2ccc(F)cc2)n1`: 860 nM; `COc1cccc(CCNC(C)Cc2ccc(OCCCCOc3ccccc3)cc2)c1` (stereo unspecified): 740 nM.
The compound `O=C(NCCCCCCNCc1ccc(-c2ccccc2)cc1)Nc1ccc(Cl)c(Cl)c1` showed an IC50 of 960 nM.
To `CCCS(=O)(=O)N1CCC(CO)(Cc2ccccc2C(F)(F)F)CC1` belongs 890 nM; to `Cc1[nH]c(C)c(-c2ccc(-c3cc(C(F)(F)F)cc(C(F)(F)F)c3)nc2)c(=O)c1Br`, 80 nM; to `CCCCOc1ccc(/C=C/c2ccc(-c3c(C)[nH]c(C)c(Cl)c3=O)s2)cc1`, 400 nM.
To `CCn1c(-c2nc(-c3ccnc(N4CCN(C)CC4)c3)cnc2N)nc2cc(S(C)(=O)=O)ccc21` belongs 810 nM.
To `Cc1ccc(CCOCCCCCNCC(O)c2cc(Cl)c(N)c(Cl)c2)cc1` (stereo unspecified) belongs 950 nM; to `CC(CN1CCN(C)CC1)C(=O)Nc1ccc(-c2cccc(-c3nc4ccc(F)cc4[nH]3)c2)cc1` (stereo unspecified), 520 nM; to `Cc1cccc2[nH]c(-c3ccc(-c4ccc(NC(=O)Nc5ccc(Cl)c(Cl)c5)cc4)s3)nc12`, 180 nM.
Compound `CCCc1cc(Cc2cnc(N)nc2N)cc(CCC)c1O` displayed an IC50 of 280 nM.
`Cc1nc2sccn2c1C(=O)NCCc1ccccc1Cl` came in with a 50% inhibitory concentration (IC50) of 800 nM.
Turning to `CCC1CN(S(=O)(=O)c2ccc3c(c2)NC(=O)CC(=O)N3)c2cc(Cl)ccc2O1` (stereo unspecified), the IC50 came to 660 nM.
`COCCCn1c(=N)c(C(=O)NCCc2ccc(OC)cc2)cc2c(=O)n3cccc(C)c3nc21`: the IC50 worked out at 1030 nM.
Next, `NC1=NC(c2ccccc2)N(OCc2ccccc2)C(N)=N1` (stereo unspecified): 40 nM.
`CN(CCCNCc1ccc2ccccc2c1)CCCNCc1ccc2ccccc2c1` returned an IC50 of 390 nM.
To `O=C(Nc1ccc(-c2ccc(-c3nc4ccccc4[nH]3)s2)cc1)Nc1ccc(Cl)c(Cl)c1` belongs 160 nM; to `O=C(c1cc2c(s1)-c1cccc(Cl)c1SC2)N1CCN(c2ccncc2)CC1`, 1010 nM; to `CCN(CC)CCN(Cc1ccc(-c2ccc(C(F)(F)F)cc2)cc1)C(=O)Cn1cc(Cc2cnn(C)c2)c(=O)nc1/C=C/c1cccc(F)c1F`, 960 nM.
`CCCNCc1c(O)ccc2c(CNCCC)c(O)ccc12` registered an IC50 of 600 nM.
To `O=C(Cc1c(-c2ccccc2)[nH]c2ccccc12)NC1CCC(CN2CCC(c3c[nH]c4ccccc34)CC2)CC1` (stereo unspecified) belongs 480 nM; to `CS(=O)(=O)NCCCNCc1ccc(-c2cccc(-c3nc4ccc(C(F)(F)F)cc4[nH]3)c2)cc1`, 850 nM; to `CC(C)(CNCCOc1ccc(Cl)cc1)c1nc(-c2ccc(Cl)c(O)c2)c(-c2ccnc(N)n2)[nH]1`, 830 nM.
Next, `COc1ccc(-c2cc(C(=O)N[C@@H](CC3CCCCC3)C(=O)NC3CCCc4ccccc43)ccc2O)cc1` (stereo partly specified): 690 nM.
To `Nc1nc(N)c2c(Cl)c(N(Cc3ccccc3)Cc3ccccc3)ccc2n1` belongs 190 nM.
As to `O=C(Nc1ccc2c(c1)CCN(C1CCC1)CC2)c1cn(-c2ccccc2)nc1-c1ccccc1`, the IC50 is 810 nM.
Next, `FC(F)(F)COc1ccc2ccccc2c1CNCCCCCCNCc1c(OCC(F)(F)F)ccc2ccccc12`: 350 nM; `Nc1ncnc2nc(-c3ccc(F)cc3)cc(-c3ccc(NC(=O)c4ccccc4)cc3)c12`: 640 nM.
Next, `COc1cccc(NC(=O)c2ccc(NCCCN3CC(C)CC(C)C3)c([N+](=O)[O-])c2)c1` (stereo unspecified): 720 nM; `COc1ccc(-c2cc(NCc3ccc(-n4ccnc4)cc3)nc(Nc3ccccc3)n2)cc1`: 970 nM; `CCCc1cc(=O)[nH]c(-n2nc(C)cc2NC(=O)CC(c2ccccc2)c2ccccc2)n1`: 620 nM.
Next, `CCc1ccc(CN2CCC(NC(=O)c3ccc(-c4ccccc4F)s3)CC2)cc1`: 1490 nM; `CCN(CC)S(=O)(=O)c1ccc(C(=O)Oc2ccccc2N(Cc2ccc(OC)cc2)C2=NS(=O)(=O)c3ccccc32)cc1`: 580 nM.
With `CCc1c(CCNCCCCCCNCCc2ccc(Br)cc2)ccc(OC)c1OC`, the IC50 came out at 230 nM.
Next, `COc1ccc(CCNCCCCCCNCCc2ccc(Cl)c(Cl)c2)cc1OC`: 930 nM; `CC(=O)Nc1ccc(CN2CCC(NC(=O)c3ccc(-c4cccc(OC(C)C)c4)s3)CC2)cc1`: 1460 nM; `CC(=O)Nc1ccc(C(=O)Nc2ccc(-c3cccc(-c4nc5ccccc5[nH]4)c3)cc2)cn1`: 240 nM.
Next, `Cc1[nH]c(C)c(-c2ccc(-c3ccc(F)cc3)cc2)c(=O)c1Br`: 1070 nM; `Cc1ccc(CC(C)NCC(O)c2cccc(C(F)(F)F)c2)c(C)c1` (stereo unspecified): 700 nM; `CN1CCC(C(=O)Nc2ccc(-c3ccc(-c4nc5ccc(C(F)(F)F)cc5[nH]4)s3)cc2)CC1`: 990 nM.
To `CCOC(=O)COc1cccc(CNc2ccc3nc(N)nc(N)c3c2)c1` belongs 410 nM; to `CN(CCN)Cc1ccc(-c2ccc(-c3nc4ccc(C(F)(F)F)cc4[nH]3)s2)cc1`, 610 nM.
As for `O=C(Nc1ccon1)c1cc(-c2cccnc2)nc2ccc(Cl)cc12`, the IC50 stood at 790 nM.
Next, `CNC(=O)CSc1nnc(-c2ccc(C)cc2)c(-c2ccc(C)cc2)n1`: 600 nM; `CC(C)N(C)C(=O)n1cnc(S(=O)(=O)C2C[C@@H]3CC[C@H]2C3)n1` (stereo partly specified): 60 nM; `CN1CCN(CCNc2c3ccccc3nc3c2ccc2ccccc23)CC1`: 610 nM.
To `COc1c(O)cc2oc(-c3ccc(O)cc3)cc(=O)c2c1O` belongs 770 nM.
To `O=S(=O)(NCCN1CCCC1)c1ccc(-c2ccc(CNC3Cc4ccccc4C3)cc2)s1` belongs 590 nM; to `N#Cc1ccc2c(c1)CN(CCC1CCC(NC(=O)c3cc4cnccc4[nH]3)CC1)CC2` (stereo unspecified), 800 nM.
`Cc1cccnc1Nc1nc(-c2ccccn2)cs1` came in with an IC50 of 690 nM.
Compound `Cc1cccn2c(=O)c3cc(C(=O)NCCN4CCOCC4)c(=N)n(CCc4ccccc4)c3nc12` came in with an IC50 of 470 nM.
In turn, `CCNc1cc(C(=O)N[C@@H](Cc2ccccc2)[C@H](O)CNCc2cccc(OC)c2C)cc(N2CCCCS2(=O)=O)c1` showed an IC50 of 520 nM.
To `CN1CCCC(CN2CCN(Cc3ccc(-c4cccc(-c5nc6ccccc6[nH]5)c4)cc3)CC2)C1` (stereo unspecified) belongs 130 nM.
Next, `COc1cc(-c2nc3c4ccccc4c4ccccc4c3[nH]2)cc(OC)c1OC`: 850 nM; `O=S1(=O)C=C(c2ccccc2)CC1`: 200 nM; `CS(=O)(=O)CCNCc1ccc(-c2ccc3ncnc(Nc4ccc(OCc5ccccc5)c(Cl)c4)c3c2)o1`: 560 nM.
To `CC(C)CNCc1ccc(-c2ccccc2CNC2CCN(Cc3ccccc3)CC2)cc1` belongs 570 nM; to `O=c1cc(NCCCN(Cc2ccccc2)Cc2ccccc2)[nH]c2ccccc12`, 580 nM.
